Source: ChEMBL document CHEMBL1157539, “Thousands of chemical starting points for antimalarial lead identification” (Nature, 2010)

System: Plasmodium falciparum
Assay: GSK_TCMDC: Inhibition of Plasmodium falciparum 3D7 in whole erythrocytes, using parasite LDH activity as an index of growth.
Format: functional, organism-based
Conditions: Plasmodium falciparum, 3D7

SMILES | XC50 [nM]
c1ccc2cc(CNCCCN3CCN(CCCNCc4ccc5ccccc5c4)CC3)ccc2c1 | 545
O=C(NC1CCC(N2CCN(c3cccc4[nH]ccc34)CC2)CC1)c1cc2cccnc2[nH]1 (stereo not drawn) | 492
COc1ccc2c(=O)c(I)c(C)[nH]c2c1 | 440
Cc1ncc(CN2CCC(C(=O)Nc3ccc(-c4nc5ccccc5o4)cc3)CC2)s1 | 393
O=[N+]([O-])c1c(O)nc2c(c1O)CCC2 | 1050
OCC1CCN(Cc2cccc(C#Cc3cc4ncnc(Nc5ccc(OCc6cccc(F)c6)c(Cl)c5)c4s3)n2)CC1 | 552
O=C(Nc1ccc(Cl)cc1)c1ccc(CN2CCCN(Cc3cccc(Cl)c3)CC2)cc1 | 826
Nc1nc(N)c2c(ccc3c2ccn3Cc2cccc3ccccc23)n1 | 3.2
CC(C)(C)SC1SC(SC(C)(C)C)C(OC(=O)c2ccccc2)C(OC(=O)c2ccccc2)C1OC(=O)c1ccccc1 (stereo not drawn) | 937
Cc1cc2cc(/C=C/C(=O)NC3CCC(CCN4CCc5ccc(C#N)cc5CC4)CC3)ccc2[nH]1 (stereo not drawn) | 880
CC1CCc2c(C(=O)Nc3c(F)cc(F)cc3Br)csc2C1 (stereo not drawn) | 752
COc1ccc(C[C@H](N)C(=O)N[C@H]2[C@@H](O)[C@H](n3cnc4c(N(C)C)ncnc43)O[C@@H]2CO)cc1 | 299
CCN1CCN(c2cc(C)c3cc(NC(=O)c4ccc(Br)o4)ccc3n2)CC1 | 755
O=S(=O)(Nc1cccc(CCN2CCC(N3CCCCC3)CC2)c1)c1cccc(C(F)(F)F)c1 | 976
Cc1[nH]c(C)c(-c2ccc(-c3cccc(OC(F)(F)F)c3)nc2)c(=O)c1Cl | 74.5
CN(C)CCOc1ccc(NC(=O)Nc2ccnc3c(Br)cccc23)cc1Cl | 842
Cc1ccc(-n2cc(CNCCCn3ccnc3)c(-c3cccc(C)c3)n2)cc1 | 773
CC(C)[C@@H](NC(=O)NC1CCC(CCN2C3CCC2CC(OC(=O)C(CO)c2ccccc2)C3)CC1)C(O)(c1ccccc1)c1ccccc1 (stereo partly drawn) | 812
Cc1c(C(=O)NC2CCC(CN3CCC(c4c[nH]c5ccccc45)CC3)CC2)cnn1-c1c(Cl)cc(Cl)cc1Cl (stereo not drawn) | 711

SMILES | XC50 [nM]
O=C(NCC(NCCCNc1cc(=O)c2ccccc2[nH]1)c1cc(Br)cc(Br)c1)C1=CCCC1 (stereo not drawn) | 901
O=S(=O)(Nc1cccc(CCN2CCC(N3CCCCC3)CC2)c1)c1ccc2c(c1)OCCO2 | 1230
COc1cc(NC(=O)/C=C/c2ccccc2OC(F)(F)F)cc(OCCN2CCCCC2)c1 | 190
CN(C)c1cccc2c1nc(-c1ccco1)n2CC1CCCN1 (stereo not drawn) | 970
Nc1ccc(-c2cnc3[nH]cc(-c4ccc(C(=O)O)cc4)c3c2)cn1 | 964
CCOC(=O)CC[C@H](NC(=O)c1ccc(NS(=O)(=O)c2ccc(-c3cnc(N)[nH]c3=O)cc2)cc1)C(=O)OCC | 174
CC(C)C1C(O)=C(c2ccc3ccccc3c2)C(=O)N1CC1CCCCC1 (stereo not drawn) | 1130
CCCCCN1CCCC(NS(=O)(=O)c2cccc(C(=O)Nc3cccc(C(F)(F)F)c3)c2)C1 (stereo not drawn) | 1070
O=C(NCc1ccccc1)c1nn(CCCN2CCC(N3CCCC3)CC2)cc1-c1ccc(Cl)c(Cl)c1 | 675
CCNc1cc(C)nc(Nc2ccc(NC(=O)c3ccccc3)cc2)n1 | 1020
COc1ccc(Nc2nc(NC3CCN(Cc4ccccc4)CC3)cc(-c3ccncc3)n2)cc1 | 992
CN1CCN(S(=O)(=O)c2cccc(Nc3nccc(N(C)c4ccc5c(c4)nc(NC(=O)c4cccs4)n5C)n3)c2)CC1 | 746
O=C(c1cccs1)N1N=C(c2cccs2)CC1c1cccc([N+](=O)[O-])c1 (stereo not drawn) | 820
COC1CCC(C(=O)Nc2ccc(-c3cccc(-c4nc5cc(C(F)(F)F)ccc5[nH]4)c3)cc2)CC1 (stereo not drawn) | 547
CCOc1ccc2[nH]c(C)cc(=NN=Cc3cccc(F)c3)c2c1 | 736
O=C(Nc1cccc(-c2ccc(-c3nc4ccccc4[nH]3)cc2)c1)c1ccncc1 | 529
O=C(CCN1C(=O)c2ccccc2C1=O)N1CCN(CC=Cc2ccccc2)CC1 | 541
CCCCC(CC)CN1C(=O)C(c2ccccc2)(c2ccccc2)N=C1N (stereo not drawn) | 189
CC(C)NCc1cccc(-c2ccc(NS(=O)(=O)c3cccc4cccnc34)cc2)c1 | 1080
